This note sets out measurements from ChEMBL document CHEMBL1152139, “Pterocarpans and flavanones from Sophora flavescens displaying potent neuraminidase inhibition” (Bioorg Med Chem Lett, 2008).

Test [1] can be described thus: Inhibition of mouse liver sialidase.
Test [2] is described as follows: Inhibition of Clostridium perfringens neuraminidase by Lineweaver-Burke plot.
Test [3] in a line: Inhibition of Clostridium perfringens neuraminidase.

Usually IC50 stands for the point on the concentration scale where inhibition reaches its midpoint. Low values mean greater potency, high ones weaker potency. With `O=C(O)[C@H]1O[C@@H](Oc2c(O)c(O[C@@H]3O[C@H](C(=O)O)[C@@H](O)[C@H](O)[C@H]3O)c3oc(-c4ccc(O)cc4)cc(=O)c3c2O)[C@H](O)[C@@H](O)[C@@H]1O`, the IC50 in test [1] is 40 µM.

What is called Ki is the equilibrium dissociation constant of an inhibitor or competing ligand from its target. Consider `C=C(C)[C@H](CCC(C)(C)O)Cc1c(O)cc(OC)c2c1O[C@H](c1ccc(O)cc1O)CC2=O` [KURARINOL], for which the Ki in test [2] stood at 19.7 µM. Moreover, in test [3], the IC50 was determined as 17 µM.

In the case of `C=C(C)C(CC=C(C)C)Cc1c(O)cc(OC)c2c1O[C@H](c1ccc(O)cc1O)CC2=O` (stereo not given in full) [KURARINONE], the Ki in test [2] stood at 18.8 µM. In test [3], this compound returned an IC50 of 15.1 µM.

Consider `C=C(C)[C@H](CC=C(C)C)Cc1c(O)cc(O)c2c1O[C@H](c1ccccc1O)CC2=O` [KUSHENOL A], for which, in test [2], the Ki came out at 17.1 µM. Moreover, the IC50 in test [3] stood at 14.8 µM.

`C=C(C)[C@H](CCC(C)(C)O)Cc1c(O)cc(O)c2c1O[C@H](c1ccccc1O)CC2=O` [KUSHENOL T] returned a Ki in test [2] of 10.8 µM. For the same compound, in test [3], 12.1 µM corresponded to half-maximal inhibition (IC50).

`Oc1ccc2c(c1)OC[C@H]1c3cc4c(cc3O[C@@H]21)OCO4` [MAACKIAIN] came in with an inhibition constant Ki in test [2] of 2.1 µM. In test [3], this compound had a concentration for half-maximal inhibition (IC50) of 3.2 µM.

In test [3], `O=c1c2cc(O)c(O)cc2oc2cc(O)c([C@@H]3O[C@H](CO)[C@@H](O)[C@H](O)[C@H]3O)c(O)c12` [MANGIFERIN] displayed an IC50 of 16.2 µM. In other words, the double-digit micromolar range.

`C=C(C)[C@H](CCC(C)(C)O)Cc1c(O)cc(O)c2c1O[C@H](c1ccc(O)cc1O)CC2=O` [NORKURARINOL] yielded a Ki in test [2] of 22.7 µM. In test [3], this compound yielded an IC50 of 18.3 µM.

`COc1ccc2c(c1)OC[C@H]1c3cc4c(cc3O[C@@H]21)OCO4` [PTEROCARPIN]: the Ki in test [2] came out at 1.7 µM. This compound came in with an IC50 in test [3] of 1.4 µM.

With `C=C(C)[C@H](CC=C(C)C)Cc1c(O)cc(O)c2c1O[C@H](c1ccc(O)cc1O)CC2=O` [SOPHORAFLAVANONE G], in test [2], affinity was put at a Ki of 20 µM. This compound had an IC50 in test [3] of 13.5 µM.

`OC[C@H]1O[C@@H](Oc2ccc3c(c2)OC[C@H]2c4cc5c(cc4O[C@@H]32)OCO5)[C@H](O)[C@@H](O)[C@@H]1O` [TRIFOLIRHIZIN] registered a Ki in test [2] of 190 µM. This compound also had an IC50 in test [3] of 237 µM.
